Data from patent US6872750B2, “Modulating angiogenesis” (Regents of the University of California, priority 2000, dated 2005).

What was measured:
Kuz = test: Inhibition of angiogenesis by Kuz inhibitors in several model systems
Experimental: The presence of Kuz and its activity is assayed by ELISA and Kuz-specific protease activity prior to or subsequent to the measure of angiogenesis.

HUVEC = HUVEC formation of vascular-like structures on Matrigel; assay type: cell-based, human; conditions: HUVEC on growth factor-reduced Matrigel, 8-12 h
Experimental: The formation of vascular-like structures by HUVEC is assessed on the basement membrane matrix preparation, growth factor-reduced Matrigel (Becton Dickinson, Bedford, Mass.), as described in Kureishi Y, et al. Nat Med 2000 September;6(9):1004-10. Two-well chamber slides are coated with Matrigel (10 mg/ml) according to the manufacturer's instructions. HUVEC are seeded on coated plates at 4-5×10^4 cells/well in EBM and incubated at 37° C. for 60 minutes. The media are supplemented with the agents (metalloprotease domain of human Kuz, Kuz inhibitors, Kuz antibodies, VEGF, etc.) and incubated at 37° C. for 8-12 h. Tube formation image is observed using an inverted phase contrast microscope (Nikon Diaphot). Images are captured with a video graphic system (DEI-750 CE Digital Output Camera, Optronics, Goleta, Calif.). The degree of tube formation is quantified by measuring the length of tubes in random fields from each well using the National Institutes of Health (NIH) Image Program.

Compound	inhibition of angiogenesis (Kuz)	formation of capillary-like tubes (HUVEC)
CNC(=O)[C@H](Cc1c[nH]c2ccccc12)NC(=O)[C@@H](CC(=O)NO)CC(C)C [GM6001, NHOHCOCH2CH(1-Bu)CO-Trp-NHMe]	inhibit angiogenesis	–
CC(C)CC(CC(=O)NO)C(=O)N[C@@H](C)C(=O)NCCN (stereo partly drawn) [IC-3, N-{D,L-[2-(hydroxyaminocarbonyl)methyl]-4-methyl-pentanoyl}-L-alanine, 2-aminoethyl amide]	inhibit angiogenesis	–
TIMP-1: natural MMP inhibitor, tissue inhibitor of MMPs	inhibit angiogenesis	–
VEGF	–	promotes the formation of capillary-like tubes
